Source: article PMC6912857 (Journal of Medicinal Chemistry, 2019)
“Also recorded” adds a separate entry of the source.

Assays:
[1] = cited from earlier work
hH3R = hH3R (Homo sapiens, UniProt Q9Y5N1); experiment: CRE-luciferase reporter gene assay, hH3R expressed on HEK293T cells; type: cell-based; settings: intrinsic activity compared to histamine
Male C57Bl6 mice = experiment: Social recognition test in mice
[2] = Nephelometry / aqueous solubility; type: physicochemical; settings: up to 100 mM concentration
mH4R = molecular target: T1, mH4R (Mus musculus, UniProt Q91ZY2); experiment: CRE-luciferase reporter gene assay, mH4R expressed on HEK293T cells; type: cell-based
T1 sequence (Q91ZY2 1-391): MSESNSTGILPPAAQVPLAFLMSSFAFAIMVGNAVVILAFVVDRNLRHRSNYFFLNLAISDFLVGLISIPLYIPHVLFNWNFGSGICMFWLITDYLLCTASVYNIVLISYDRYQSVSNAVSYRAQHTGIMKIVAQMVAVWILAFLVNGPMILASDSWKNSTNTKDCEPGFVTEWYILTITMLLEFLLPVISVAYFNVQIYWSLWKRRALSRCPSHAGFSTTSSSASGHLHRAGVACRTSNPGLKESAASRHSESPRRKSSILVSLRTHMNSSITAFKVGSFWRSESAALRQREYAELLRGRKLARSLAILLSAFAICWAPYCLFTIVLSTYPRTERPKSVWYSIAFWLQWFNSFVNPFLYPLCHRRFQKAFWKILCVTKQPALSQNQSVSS

H1R = H1R (Homo sapiens, UniProt P35367); experiment: NFAT-luciferase reporter gene assay, H1R; type: cell-based; settings: up to 10 μM
[3] = Metabolic stability in mouse liver microsomes
H2R = H2R (Homo sapiens, UniProt P25021); experiment: CRE-luciferase reporter gene assay, H2R; type: cell-based; settings: up to 10 μM
rats = settings: cited from earlier work

H1R, sequence (P35367 whole entry, species assumed): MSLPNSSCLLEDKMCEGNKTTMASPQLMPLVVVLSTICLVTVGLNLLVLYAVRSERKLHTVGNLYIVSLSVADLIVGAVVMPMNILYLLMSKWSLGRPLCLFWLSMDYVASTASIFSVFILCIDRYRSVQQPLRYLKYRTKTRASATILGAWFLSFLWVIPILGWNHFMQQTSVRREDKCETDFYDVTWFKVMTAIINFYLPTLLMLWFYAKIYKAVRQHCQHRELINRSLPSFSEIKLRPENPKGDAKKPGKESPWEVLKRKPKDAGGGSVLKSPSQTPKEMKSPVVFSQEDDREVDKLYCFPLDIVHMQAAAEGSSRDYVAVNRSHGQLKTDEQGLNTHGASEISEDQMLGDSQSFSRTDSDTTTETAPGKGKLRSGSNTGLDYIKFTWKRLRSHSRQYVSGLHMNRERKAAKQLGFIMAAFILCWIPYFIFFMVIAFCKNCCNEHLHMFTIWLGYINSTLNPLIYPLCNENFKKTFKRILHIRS
hH3R, sequence (Q9Y5N1 whole entry): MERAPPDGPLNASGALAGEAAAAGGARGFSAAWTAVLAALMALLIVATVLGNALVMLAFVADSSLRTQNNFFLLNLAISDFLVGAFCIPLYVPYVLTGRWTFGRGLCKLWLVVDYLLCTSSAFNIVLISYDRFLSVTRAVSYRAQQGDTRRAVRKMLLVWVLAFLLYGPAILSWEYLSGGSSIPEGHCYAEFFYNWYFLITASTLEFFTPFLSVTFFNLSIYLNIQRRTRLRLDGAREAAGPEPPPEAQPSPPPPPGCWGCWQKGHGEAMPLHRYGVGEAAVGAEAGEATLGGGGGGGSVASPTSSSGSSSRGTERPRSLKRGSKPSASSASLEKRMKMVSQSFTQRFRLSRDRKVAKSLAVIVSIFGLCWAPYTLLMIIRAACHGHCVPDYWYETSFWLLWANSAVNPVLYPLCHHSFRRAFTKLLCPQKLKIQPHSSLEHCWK
H2R, sequence (P25021 whole entry, species assumed): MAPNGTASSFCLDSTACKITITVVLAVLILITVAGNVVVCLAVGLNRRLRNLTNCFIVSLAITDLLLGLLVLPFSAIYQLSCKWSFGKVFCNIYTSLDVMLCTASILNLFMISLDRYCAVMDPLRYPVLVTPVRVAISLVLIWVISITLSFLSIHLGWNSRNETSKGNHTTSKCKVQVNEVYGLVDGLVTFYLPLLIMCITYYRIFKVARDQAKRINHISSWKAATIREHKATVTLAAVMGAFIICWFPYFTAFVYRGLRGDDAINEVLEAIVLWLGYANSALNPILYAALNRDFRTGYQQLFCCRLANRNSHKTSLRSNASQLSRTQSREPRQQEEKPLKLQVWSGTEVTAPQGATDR

## c1ncc(CC2CCNCC2)[nH]1 [immepip]
[1]
  effect on memory in the social recognition test: cause amnesia

## CCNC1CN(c2cc(CC)nc(N)n2)C1 [12c, 4-Ethyl-6-(3-(ethylamino)azetidin-1-yl)pyrimidin-2-amine]
hH3R
  α (intrinsic activity): ~1.0

## CCCNC1CN(c2ccnc(N)n2)C1.O.O=C(O)/C=C/C(=O)O [14d, 4-(3-(Propylamino)azetidin-1-yl)pyrimidin-2-amine Fumarate Hydrate]
Male C57Bl6 mice; indicated by effects in the in vivo social memory test, 5 mg/kg i.p., 5 mg/kg
  CNS / brain penetration: clearly penetrating the CNS; also recorded: appreciable brain penetration
Male C57Bl6 mice; mice, 5 mg/kg i.p.
  discrimination index (DI): negative
Male C57Bl6 mice; mice, 5 mg/kg i.p. 30 min before the training session, 5 mg/kg
  social recognition memory (discrimination of novel vs familiar mouse): amnesic effects; also recorded: did not discriminate between the novel and the familiar mouse; also recorded: impairs social recognition
Male C57Bl6 mice; mice, 5 mg/kg i.p., during test
  exploration time of the cage during test: 148.3 ± 69.4 s
Male C57Bl6 mice; mice, 5 mg/kg i.p., during training
  exploration time of the cage during training: 136.2 ± 44.1 s
Male C57Bl6 mice; mice, 5 mg/kg i.p., training session
  sociability: did not affect
[2]
  microprecipitation (nephelometry): no microprecipitation
mH4R
  selectivity in potency mH3R vs mH4R: > 10 fold
H1R
  activation of H1R: does not activate
[3]; mouse liver microsomes
  slower elimination compared with the reference control verapamil: more than 2 times
[3]; mouse, microsomes, pH 7.4
  half-life at 50 μM: 131 min
H2R
  activation of H2R: does not activate

## N=C(N)SCCc1cnc[nH]1 [Imetit, imetit]
rats
  effect on memory in the object recognition and passive avoidance tests: memory impairments

## S=C(NC1CCCCC1)N1CCC(c2cnc[nH]2)CC1 [thioperamide]
[1]
  effect on memory in the social recognition test: improve short-term memory
